Measurements reported in US4590270A, “2,4-diamino-[4-piperidinyl]pyrimidines useful as antibacterial agents, antimalarial agents, antitumors agents” (Hoffmann-La Roche Inc., priority 1983, dated 1986).
Converted amounts (≈) assume the structure as drawn. Read-outs that look alike come from different tables or passages of the source.

Experiments:
[1] = target: dihydrofolate reductase from E. coli (Escherichia coli, UniProt P0ABQ4); assay: inhibition of dihydrofolate reductase from E. coli; assay type: biochemical
[2] = test system: Bacteroides fragilis strains; assay: in vitro minimum inhibitory concentration against Bacteroides fragilis strains; assay type: cell-based
Experimental: (§1) In the case of in vitro experiments an minimum inhibitory concentration of 0.1-1.6 μg/ml has been determined for compound A against Bacteroides fragilis strains. […] In comparison to this, values of 79 and 45 μg/l, respectively, were determined for the known pyrimethamine.

[3] = test system: P. falciparum; assay: in vitro activity against malaria pathogen P. falciparum; assay type: cell-based; details: Plasmodium falciparum
Experimental: as §1

[4] = P. falciparum strain 13, read-out: ID50 (the source's name)
[5] = P. falciparum strain T9, read-out: ID50 (the source's name)

COc1cc(OC)cc(N2[C@@H]3CC[C@H]2C[C@H](c2cnc(N)nc2N)C3)c1 [compound A, exo-2,4-diamino-5-[8-(3,5-dimethoxyphenyl)-8-azabicyclo[3.2.1]oct-3-yl]pyrimidine]
IC50 [1]: 3.3 nM
MIC [2]: 0.1 to 1.6 µg/mL (≈ 0.281 to 4.5 µM)
IC50 [3, 4]: 0.0009 µg/mL (≈ 0.00253 µM)
IC50 [3, 5]: 0.0014 µg/mL (≈ 0.00394 µM)

CCc1nc(N)nc(N)c1-c1ccc(Cl)cc1 [pyrimethamine, reference compound]
IC50 [3, 4]: 0.045 µg/mL (≈ 0.181 µM)
IC50 [3, 5]: 0.079 µg/mL (≈ 0.318 µM)
